Here are results for twelve compounds from US20220194960A1, “WEE1 INHIBITOR AND PREPARATION AND USE THEREOF” (SHOUYAO HOLDINGS (BEIJING) CO., LTD., priority 2019, published 2022).

The structures appear in SMILES notation. Read-outs that look alike come from different tables or passages of the source.

Data set [1] in a line: Animal pharmacokinetic studies in rats. The format is in vivo. The settings on record: male rats, 5 mg/kg single intragastric administration, plasma. As to the method:
3. Animal Pharmacokinetic Studies of Compounds:
Animal pharmacokinetic experiments were conducted with 3 healthy adult male rats from Beijing Vital River Laboratory Animal Technology Co., Ltd. The compound was suspended in a 20% solution of sulfobutyl ether-β-cyclodextrin (W/W/V) at a concentration of 1 mg/mL, The rats were subjected to 5 mg/kg suspension of the compound by single intragastric administration with a dosing volume of 5 mL/kg. Animals were fasted overnight prior to the experiment from 10 h before dosing to 4 h alter dosing. Blood was collected 0.25, 0.5, 1, 2, 4, 6, 8 and 24 h after administration. Animals were lightly anesthetized with isoflurane, and approximately 0.4 ml, of whole blood was collected from the orbital venous plexus with a glass blood collection tube, placed in a heparin anticoagulant tube, centrifuged at 4200 rpm for 5 min at 4° C., plasma transferred to the centrifuge tube, and stored at −80° C. until analysis. Test compounds extracted from rat plasma using acetonitrile protein precipitation and internal standard (Warfarin or Propranolol) were used for Plasma sample analysis, and the extracts were analyzed by LC/MS/MS. The measured plasma concentration-time data for individual animals were analyzed using non-compartmental model of WinNonlin (version 5.2.1; Pharsight) software to obtain the following pharmacokinetic parameters: maximum (peak) plasma drug concentration Cmax; a peak time Tmax; half-life T1/2 and the area under the plasma concentration-time curve front time 0 extrapolated to infinite time AUC0-inf.

The next data set deals with T1, WEE1 kinase (Homo sapiens, UniProt P30291).
T1 construct: purchased Carna bioscience
T1 sequence (P30291 whole entry): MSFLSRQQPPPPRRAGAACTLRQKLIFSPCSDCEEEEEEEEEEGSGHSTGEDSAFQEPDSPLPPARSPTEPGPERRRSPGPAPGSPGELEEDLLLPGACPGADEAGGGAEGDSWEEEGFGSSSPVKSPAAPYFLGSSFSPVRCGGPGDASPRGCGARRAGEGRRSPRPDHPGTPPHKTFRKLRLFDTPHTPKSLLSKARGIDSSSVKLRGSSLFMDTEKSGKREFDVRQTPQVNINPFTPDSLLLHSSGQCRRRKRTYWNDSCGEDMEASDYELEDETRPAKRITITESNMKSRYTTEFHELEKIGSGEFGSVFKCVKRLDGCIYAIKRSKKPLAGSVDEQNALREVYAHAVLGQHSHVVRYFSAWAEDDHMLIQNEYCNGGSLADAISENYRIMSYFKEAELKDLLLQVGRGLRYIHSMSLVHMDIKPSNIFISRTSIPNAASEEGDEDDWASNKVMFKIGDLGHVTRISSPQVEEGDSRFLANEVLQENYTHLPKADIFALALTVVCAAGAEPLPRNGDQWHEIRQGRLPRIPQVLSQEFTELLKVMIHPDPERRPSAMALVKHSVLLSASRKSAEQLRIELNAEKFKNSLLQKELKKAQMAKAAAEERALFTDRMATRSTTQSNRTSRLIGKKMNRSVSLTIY
Kind of data set: WEE1 kinase binding assay (LanthaScreen EU). To be noted: WEE1 kinase 20 nM, Kinase Tracer 178 100 nM, 23° C. for 60 min, read-out: WEEI (IC50). As to the method:
1. Assay for WEE1 Kinase Inhibitory Activity (IC50) on Compounds
The WEE1 kinase binding assay was established and optimized with LanthaScreen EU for the determination of the activity of compounds. 10 mM compounds were subjected to ten-fold gradient dilution in 100% DMSO (6 concentrations in total), 5 μL of diluent from each concentration was added to 45 μL of reaction buffer (50 mM HEPES (4-hydroxyethylpiperazine ethanesulfonic acid), pH 7.5, 10 mM MgCl2 (magnesium chloride), 1 mM EGTA (ethylene glycol diethyl ether diamine tetraacetic acid), 0.01% Brij-35 (polyoxyethylene lauryl ether)) for blending. On this basis, 2 μL diluent from each concentration was added to 48 μL of reaction buffer for blending as a 4*compound (final concentrations of 1000, 100, 10, 1, 0.1, 0 nM) for later use. Reaction buffer was used to formulate 4*WEE1 kinase (purchased from Carna bioscience, a final concentration of 20 nM), 4*LanthaScreen EU-anti-GST Antibody (purchased from Invitrogen, PV5594, a fuel concentration of 2 nM), and 4*Kinase Tracer 178 (purchased from Invitrogen, PV5593, a final concentration of 100 nM). 2.5 μL of 4*compound was added to a 384-well plate (OptiPlate-384, purchased from PerkinElmer), followed by adding 2.5 μL of 4*WEE1 kinase, standing for 5 min at room temperature. Then 2.5 μL of 4*LanthaScreen EU-anti-GST Antibody was added followed by 2.5 μL of 4*Kinase Tracer 178. The reaction was started by centrifugation (a total reaction volume of 10 μL). The 384-well plate was wrapped with tin foil paper and placed in an incubator at 23° C. for 60 min. Fluorescence values (excitation at 320 nm, detecting emitted light at 665 nm and 615 nm, and a ratio of the two as enzyme activity) were read on Envision (purchased from PerkinElmer). The enzyme activity of each compound was measured at 6 concentrations, and the IC50 value of the compound was calculated using GraFit6.0 software (Erithacus Software).
The aforementioned “*” refers to multiplying, representing multiples.
(In general: In TR-FRET formats the signal depends on donor and acceptor labels being close together.)

Data set [2] concerns Human non-small cell lung cancer cells NCI-H1299. The experiment in a line: NCI-H1299 cell proliferation inhibition (CellTiter-Glo). Format: cell-based. The settings on record: Homo sapiens, 72 h, cultured 3 days, table head NCI-H1975, method NCI-H1299. How it is done:
2. Determination of Cell Proliferation Activity of Compounds:
NCI-H1299 cell proliferation inhibition screening method was established using CellTiter-fib detection reagent from Promega.
Human non-small cell lung cancer cells NCI-H1299 were cultured in 25 cm^2 or 75 cm^2 plastic tissue culture flasks (Corning) filled with DMEM (Gibco) medium supplemented with 10% fetal bovine serum (Hyclone) under 37° C., 95% air, and 5% CO2, and subcultured 2-3 times a week.
Cells were seeded at 1000 cells/well in a 96-well cell culture plate (Corning), 195 μL/well, and cultured under 37° C., 95% air, and 5% CO2. The next day test compound was added: 10 mM compounds (dissolved in DMSO) were subjected to 3-fold gradient dilution in DMSO, 2 μL of diluent from each concentration was added to 48 μL of serum-fret medium, and finally 5 μL of the diluted compound was added to the plate seeded with cells. The final concentration of DMSO in the cell culture was 0.1% and the foul concentration of the test compound was 0.3 nM-10 μM. The cells were cultured at 37° C. for 3 days.
For orientation: In ATP-based viability assays light output follows the ATP content of the culture.

Regarding `CN1CCN(C2CCN(c3ccc(Nc4ncc5cc(C6CC6)n(-c6cccc(C(C)(C)O)n6)c5n4)cc3)CC2)CC1` [Example 56, 2-(6-(2-((4-(4-(4-methylpiperazin-1-yl)piperidin-1-yl)phenyl)amino)-6-cyclopropyl-7H-pyrrolo[2,3-d]pyrimidin-7-yl)pyridin-2-yl)propan-2-ol], the half-life (commonly how long it takes for the measured level to halve) in data set [1] (rat, po) is 7.6 h. Also, in data set [1] (rat, po, read-out: AUC0-inf), the AUC(0-inf) stood at 1420 ng·h/mL. Moreover, the Cmax (usually the maximum level reached in the sampled fluid or tissue) in data set [1] (rat, po, read-out: Cmax) stood at 116 ng/mL. Besides, the time to peak (Tmax) (commonly the time at which the peak concentration occurs) in data set [1] (rat, po, read-out: Tmax) was 4 h.

In turn, `CN1CCN(c2ccc(Nc3ncc4c(F)c(C5CC5)n(-c5cccc(C(C)(C)O)n5)c4n3)cc2)CC1` [Example 57, 2-(6-(2-((4-(4-methylpiperazin-1-yl)phenyl)amino)-5-fluoro-6-cyclopropyl-7H-pyrrolo[2,3-d]pyrimidin-7-yl)pyridin-2-yl)propan-2-ol] gave a half-life in data set [1] (rat, po) of 11.2 h. Also, the AUC(0-inf) in data set [1] (rat, po, read-out: AUC0-inf) is 1080 ng·h/mL. Also, the peak concentration (Cmax) in data set [1] (rat, po, read-out: Cmax) worked out at 68 ng/mL. Also, the Tmax in data set [1] (rat, po, read-out: Tmax) stood at 2.3 h.

Turning to `CN1CCN(C2CCN(c3ccc(Nc4ncc5c(F)c(C6CC6)n(-c6cccc(C(C)(C)O)n6)c5n4)cc3)CC2)CC1` [Example 58, 2-(6-(2-((4-(4-(4-methylpiperazin-1-yl)piperidin-1-yl)phenyl)amino)-5-fluoro-6-cyclopropyl-7H-pyrrolo[2,3-d]pyrimidin-7-yl)pyridin-2-yl)propan-2-ol], in data set [1], the AUC(0-inf) came out at 1751 ng·h/mL, the peak concentration (Cmax) is on record as 83 ng/mL, the T1/2 stood at 10.9 h and the Tmax is 6.0 h.

`CN1CCN(C2CCN(c3ccc(Nc4ncc5cc(C6CC6)n(-c6cccc(C(C)(C)O)n6)c5n4)cc3F)CC2)CC1` [Example 77, 2-(6-(2-((3-fluoro-4 (4-(4-methylpiperazin-1-yl)piperidin-1-yl)phenyl)amino)-6-cyclopropyl-7H-pyrrolo[2,3-d]pyrimidin-7-yl)pyridin-2-yl)propan-2-ol]: the half-life in data set [1] (rat, po) was 13.6 h. In data set [1] (rat, po, read-out: AUC0-inf), the AUC(0-inf) is 2340 ng·h/mL. Moreover, the Cmax in data set [1] (rat, po, read-out: Cmax) was determined as 98 ng/mL. For the same compound, in data set [1] (rat, po, read-out: Tmax), the Tmax was determined as 5.33 h.

For the compound `CCCc1cc2cnc(Nc3ccc(N4CCC5(CCN(C)CC5)CC4)cc3)nc2n1-c1cccc(C(C)(C)O)n1` [Example 124, 2-(6-(6-propyl-2-((4-(9-methyl-3,9-diazaspiro[5.5]undecan-3-yl)phenyl)amino)-7H-pyrrolo[2,3-d]pyrimidin-7-yl)pyridin-2-yl)propan-2-ol], the half-inhibitory concentration (IC50) (commonly the concentration at which inhibition is half-maximal) at WEE1 kinase is 1.03 nM. Moreover, in data set [1], the AUC(0-inf) turned out to be 4066 ng·h/mL, the Cmax turned out to be 163 ng/mL, the T1/2 was 19.2 h and the Tmax amounted to 4.8 h.

Consider `Cc1cc2cnc(Nc3ccc(N4CCC5(CCN(C)CC5)CC4)cc3)nc2n1-c1cccc(C(C)(C)O)n1` [Example 147, 2-(6-(6-methyl-2-((4-(9-methyl-3,9-diazaspiro[5.5]undecan-3-yl)phenyl)amino)-7H-pyrrolo[2,3-d]pyrimidin-7-yl)pyridin 2-yl)propan-2-ol], for which the 50% inhibitory concentration (IC50) worked out at 0.91 nM on WEE1 kinase and 85 nM in data set [2].

The compound `Cc1cc2cnc(Nc3ccc(N4CCC(N5CCN(C)CC5)CC4)cc3)nc2n1-c1cccc(C(C)(C)O)n1` [Example 148, 2-(6-(6-methyl-2-((4-(4-(4-methylpiperazin-1-yl)piperidin-1-yl)phenyl)amino)-7H-pyrrolo[2,3-d]pyrimidin-7-yl)pyridin-2-yl)propan-2-ol] showed a half-life in data set [1] (rat, po) of 9.2 h. The AUC(0-inf) in data set [1] (rat, po, read-out: AUC0-inf) was determined as 1100 ng·h/mL. Moreover, the peak concentration (Cmax) in data set [1] (rat, po, read-out: Cmax) was found to be 64 ng/mL. The Tmax in data set [1] (rat, po, read-out: Tmax) worked out at 5.4 h.

`Cc1cc2cnc(Nc3ccc(N4CCC(N5CCN(C)CC5)CC4)cc3)nc2n1-c1cccc(N=S(C)(C)=O)n1` [Example 150]: the 50% inhibitory concentration (IC50) on WEE1 kinase is 0.22 nM; in data set [2], 32 nM.

With `Cc1cc2cnc(Nc3ccc(N4CCN(CCN(C)C)CC4)cc3)nc2n1-c1cccc(N=S(C)(C)=O)n1` [Example 151, ((6-(2-((4-(4-(2-(dimethylamino)ethyl)piperazin-1-yl)phenyl)amino)-6-methyl-7H-pyrrolo[2,3-d]pyrimidin-7-yl)pyridin-2-yl)imino)dimethyl-λ^6-sulfanone], the IC50 was found to be 0.6 nM at WEE1 kinase and 66 nM in data set [2].

For `CCc1cc2cnc(Nc3ccc(N4CCN(C)CC4)cc3)nc2n1-c1cccc(N=S(C)(C)=O)n1` [Example 152], the IC50 at WEE1 kinase came out at 0.2 nM; in data set [2], 23 nM.

`CCc1cc2cnc(Nc3ccc(N4CCC(N5CCN(C)CC5)CC4)cc3)nc2n1-c1cccc(N=S(C)(C)=O)n1` [Example 154, ((6-(6-ethyl-2-((4 (4-(4-methylpiperazin-1-yl)piperidin-1-yl)phenyl)amino)-7H-pyrrolo[2,3-d]pyrimidin-7-yl)pyridin-2-yl)imino)dimethyl-λ^6-sulfanone]: the IC50 on WEE1 kinase was 0.53 nM; in data set [2] it was 69 nM.

As to `CCc1cc2cnc(Nc3ccc(N4CCN(CCN(C)C)CC4)cc3)nc2n1-c1cccc(N=S(C)(C)=O)n1` [Example 155, ((6-(2-((4 (4-(2-(dimethylamino)ethyl)piperazin-1-yl)phenyl)amino)-6-ethyl-7H-pyrrolo[2,3-d]pyrimidin-7-yl)pyridin-2-yl)imino)dimethyl-λ^6-sulfanone], the IC50 at WEE1 kinase turned out to be 1.02 nM; in data set [2], 89 nM.
